Among the data in ChEMBL document CHEMBL3351608, “2-Phenylindole and Arylsulphonamide: Novel Scaffolds Bactericidal against Mycobacterium tuberculosis” (ACS Med Chem Lett, 2014) are IC50 values, retold here.

Structures are written as SMILES. Values after ≈ are worked out from the molar mass of the structure shown.

Experiment in all cases: microbe, parasite or virus in culture
Common to all, as to settings: variant bovis BCG, 3 h

The subject of experiment [1] is Mycobacterium tuberculosis.
For experiment [2], the system named is Mycobacterium tuberculosis. The source holds these as a separate data set.
Experiment [3] deals with Mycobacterium tuberculosis. This is another data set of the same source.

`C[C@@H]1CN(c2c(F)c(N)c3c(=O)c(C(=O)O)cn(C4CC4)c3c2F)C[C@H](C)N1` [SPARFLOXACIN]: the IC50 in experiment [1] is 7.3 mg/L (≈ 18.6 µM); in experiment [2] it was 11.4 mg/L (≈ 29.1 µM); in experiment [3] it was 16.7 mg/L (≈ 42.6 µM).

Turning to `CO[C@H]1/C=C/O[C@@]2(C)Oc3c(C)c(O)c4c(O)c(c(/C=N/N5CCN(C)CC5)c(O)c4c3C2=O)NC(=O)/C(C)=C\C=C\[C@H](C)[C@H](O)[C@@H](C)[C@@H](O)[C@@H](C)[C@H](OC(C)=O)[C@@H]1C` [RIFAMPIN], the IC50 in experiment [1] stood at 2.9 mg/L (≈ 3.52 µM); in experiment [2], 2 mg/L (≈ 2.43 µM).

As for `O=C(N[C@H](CO)[C@H](O)c1ccc([N+](=O)[O-])cc1)C(Cl)Cl` [CHLORAMPHENICOL], 5.6 mg/L (≈ 17.3 µM) corresponded to half-maximal inhibition in experiment [2] (IC50).
